Reference: ChEMBL document CHEMBL1201862, “PubChem BioAssay data set” (2004)
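Briefly, cells in 96-well plates were exposed to five compound concentrations for 48 h, and endpoints were estimated by linear interpolation. Here, GI50 denotes the concentration required for 50% inhibition of growth.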 The source made the active and inactive calls. No stated cut-off is given here; in the data, active = GI50 up to about 1.1 µM and inactive = higher.

What was measured:
Experiment in all cases: growth of human tumour cells (NCI), 48 h
MDA-MB-231 = test system: MDA-MB-231
BT-549 = test system: BT-549
COLO 205 = test system: COLO 205
HT-29 = test system: HT-29
NCI-H522 = test system: NCI-H522
SF-268 = test system: SF-268
UO-31 = test system: UO-31
Hs-578T = test system: Hs-578T
IGROV-1 = test system: IGROV-1
SK-MEL-28 = test system: SK-MEL-28
UACC-62 = test system: UACC-62
OVCAR-5 = test system: OVCAR-5
SK-OV-3 = test system: SK-OV-3
HCT-116 = test system: HCT-116
TK-10 = test system: TK-10
OVCAR-8 = test system: OVCAR-8
SW-620 = test system: SW-620
SF-539 = test system: SF-539
HCC 2998 = test system: HCC 2998
UACC-257 = test system: UACC-257
RXF 393 = test system: RXF 393
Malme-3M = test system: Malme-3M
HOP-62 = test system: HOP-62
HCT-15 = test system: HCT-15
CCRF-CEM = test system: CCRF-CEM
A549 = test system: A549
EKVX = test system: EKVX
786-0 = test system: 786-0
PC-3 = test system: PC-3
SN12C = test system: SN12C
KM12 = test system: KM12
SR = test system: SR
NCI-H460 = test system: NCI-H460
ACHN = test system: ACHN
HL-60 = test system: HL-60
SF-295 = test system: SF-295
K562 = test system: K562
RPMI-8226 = test system: RPMI-8226
NCI-H226 = test system: NCI-H226
T47D = test system: T47D
NCI/ADR-RES = test system: NCI/ADR-RES
OVCAR-4 = test system: OVCAR-4
CAKI-1 = test system: CAKI-1
U-251 = test system: U-251
SK-MEL-5 = test system: SK-MEL-5
SK-MEL-2 = test system: SK-MEL-2
MCF7 = test system: MCF7
MDA-MB-435 = test system: MDA-MB-435
SNB-75 = test system: SNB-75
M14 = test system: M14
HOP-92 = test system: HOP-92
LOX IMVI = test system: LOX IMVI
MDA-N = test system: MDA-N
DU-145 = test system: DU-145
SNB-19 = test system: SNB-19
NCI-H23 = test system: NCI-H23
A498 = test system: A498
OVCAR-3 = test system: OVCAR-3
MOLT-4 = test system: MOLT-4

CCN(CC)c1ccc2cc(C(=O)Nc3cccc4ccccc34)c(=N)oc2c1
GI50 (MDA-MB-231): > 100 µM (inactive)
GI50 (BT-549): 24 µM (inactive)
GI50 (COLO 205): > 100 µM (inactive)
GI50 (HT-29): > 100 µM (inactive)
GI50 (NCI-H522): 64 µM (inactive)
GI50 (SF-268): > 100 µM (inactive)
GI50 (UO-31): > 100 µM (inactive)
GI50 (Hs-578T): 82 µM (inactive)
GI50 (IGROV-1): > 100 µM (inactive)
GI50 (SK-MEL-28): 58.5 µM (inactive)
GI50 (UACC-62): 63.4 µM (inactive)
GI50 (OVCAR-5): > 100 µM (inactive)
GI50 (SK-OV-3): > 100 µM (inactive)
GI50 (HCT-116): > 100 µM (inactive)
GI50 (TK-10): > 100 µM (inactive)
GI50 (OVCAR-8): > 100 µM (inactive)
GI50 (SW-620): 67 µM (inactive)
GI50 (SF-539): 72.9 µM (inactive)
GI50 (HCC 2998): > 100 µM (inactive)
GI50 (UACC-257): > 100 µM (inactive)
GI50 (RXF 393): 61 µM (inactive)
GI50 (Malme-3M): 30.5 µM (inactive)
GI50 (HOP-62): > 10 µM (inactive)
GI50 (HCT-15): > 100 µM
GI50 (CCRF-CEM): > 100 µM (inactive)
GI50 (A549): 75.9 µM (inactive)
GI50 (EKVX): > 100 µM (inactive)
GI50 (786-0): 16.8 µM (inactive)
GI50 (PC-3): > 100 µM (inactive)
GI50 (SN12C): > 100 µM (inactive)
GI50 (KM12): > 100 µM (inactive)
GI50 (SR): 7.96 µM (inactive)
GI50 (NCI-H460): 89.5 µM (inactive)
GI50 (ACHN): > 100 µM (inactive)
GI50 (HL-60): 7.98 µM (inactive)
GI50 (SF-295): 45.5 µM (inactive)
GI50 (K562): > 100 µM (inactive)
GI50 (RPMI-8226): > 100 µM (inactive)
GI50 (NCI-H226): > 100 µM (inactive)
GI50 (T47D): > 100 µM (inactive)
GI50 (NCI/ADR-RES): > 100 µM (inactive)
GI50 (OVCAR-4): > 100 µM (inactive)
GI50 (CAKI-1): > 100 µM (inactive)
GI50 (U-251): 48.4 µM (inactive)
GI50 (SK-MEL-5): 43.1 µM (inactive)
GI50 (SK-MEL-2): > 100 µM (inactive)
GI50 (MCF7): > 100 µM (inactive)
GI50 (MDA-MB-435): 91.8 µM (inactive)
GI50 (SNB-75): > 100 µM (inactive)
GI50 (M14): 38.8 µM (inactive)
GI50 (HOP-92): > 100 µM (inactive)
GI50 (LOX IMVI): > 100 µM (inactive)
GI50 (MDA-N): > 100 µM (inactive)
GI50 (DU-145): > 100 µM (inactive)
GI50 (SNB-19): 52.8 µM (inactive)

Nc1ncnc2c1cnn2COCC(O)CO (stereo not drawn)
GI50 (MDA-MB-231): > 100 µM (inactive)
GI50 (BT-549): > 100 µM (inactive)
GI50 (NCI-H23): > 100 µM (inactive)
GI50 (COLO 205): > 100 µM (inactive)
GI50 (HT-29): > 100 µM (inactive)
GI50 (NCI-H522): > 100 µM (inactive)
GI50 (SF-268): > 100 µM (inactive)
GI50 (UO-31): > 100 µM (inactive)
GI50 (A498): > 100 µM (inactive)
GI50 (Hs-578T): > 100 µM (inactive)
GI50 (IGROV-1): > 100 µM (inactive)
GI50 (SK-MEL-28): > 100 µM (inactive)
GI50 (UACC-62): > 100 µM (inactive)
GI50 (OVCAR-5): > 100 µM (inactive)
GI50 (SK-OV-3): > 100 µM (inactive)
GI50 (HCT-116): > 100 µM (inactive)
GI50 (TK-10): > 100 µM (inactive)
GI50 (OVCAR-3): > 100 µM (inactive)
GI50 (OVCAR-8): > 100 µM (inactive)
GI50 (SW-620): > 100 µM (inactive)
GI50 (MOLT-4): > 100 µM (inactive)
GI50 (SF-539): > 100 µM (inactive)
GI50 (HCC 2998): > 100 µM (inactive)
GI50 (UACC-257): > 100 µM (inactive)
GI50 (RXF 393): > 100 µM (inactive)
GI50 (Malme-3M): > 100 µM (inactive)
GI50 (HOP-62): > 100 µM (inactive)
GI50 (HCT-15): > 100 µM
GI50 (CCRF-CEM): > 100 µM (inactive)
GI50 (A549): > 100 µM (inactive)
GI50 (EKVX): > 100 µM (inactive)
GI50 (786-0): > 100 µM (inactive)
GI50 (PC-3): > 100 µM (inactive)
GI50 (SN12C): > 100 µM (inactive)
GI50 (KM12): > 100 µM (inactive)
GI50 (SR): > 100 µM (inactive)
GI50 (NCI-H460): > 100 µM (inactive)
GI50 (ACHN): > 100 µM (inactive)
GI50 (SF-295): > 100 µM (inactive)
GI50 (K562): > 100 µM (inactive)
GI50 (RPMI-8226): > 100 µM (inactive)
GI50 (NCI-H226): > 100 µM (inactive)
GI50 (T47D): > 100 µM (inactive)
GI50 (NCI/ADR-RES): > 100 µM (inactive)
GI50 (OVCAR-4): > 100 µM (inactive)
GI50 (CAKI-1): > 100 µM (inactive)
GI50 (U-251): > 100 µM (inactive)
GI50 (SK-MEL-5): > 100 µM (inactive)
GI50 (SK-MEL-2): > 100 µM (inactive)
GI50 (MCF7): > 100 µM (inactive)
GI50 (MDA-MB-435): > 100 µM (inactive)
GI50 (M14): > 100 µM (inactive)
GI50 (HOP-92): > 100 µM (inactive)
GI50 (LOX IMVI): > 100 µM (inactive)
GI50 (MDA-N): > 100 µM (inactive)
GI50 (DU-145): > 100 µM (inactive)
GI50 (SNB-19): > 100 µM (inactive)

COc1cccc(C23CCCC(C2)NCC3Br)c1OC (stereo not drawn)
GI50 (MDA-MB-231): > 100 µM (inactive)
GI50 (BT-549): 15.6 µM (inactive)
GI50 (NCI-H23): 15.3 µM (inactive)
GI50 (COLO 205): 11.9 µM (inactive)
GI50 (HT-29): 37.3 µM (inactive)
GI50 (NCI-H522): 10.2 µM (inactive)
GI50 (SF-268): 23 µM (inactive)
GI50 (UO-31): 47.4 µM (inactive)
GI50 (A498): 15.4 µM (inactive)
GI50 (Hs-578T): 19.7 µM (inactive)
GI50 (IGROV-1): 75.7 µM (inactive)
GI50 (SK-MEL-28): 48 µM (inactive)
GI50 (UACC-62): 21.4 µM (inactive)
GI50 (OVCAR-5): 56.2 µM (inactive)
GI50 (SK-OV-3): > 100 µM (inactive)
GI50 (HCT-116): 30.8 µM (inactive)
GI50 (TK-10): 36.9 µM (inactive)
GI50 (OVCAR-3): 34.5 µM (inactive)
GI50 (OVCAR-8): 11.2 µM (inactive)
GI50 (SW-620): 35.6 µM (inactive)
GI50 (MOLT-4): 45 µM (inactive)
GI50 (UACC-257): 8.39 µM (inactive)
GI50 (RXF 393): 92.3 µM (inactive)
GI50 (Malme-3M): > 100 µM (inactive)
GI50 (HOP-62): 38 µM (inactive)
GI50 (HCT-15): 40.9 µM
GI50 (CCRF-CEM): 21.9 µM (inactive)
GI50 (A549): 3.66 µM (inactive)
GI50 (EKVX): 28.4 µM (inactive)
GI50 (786-0): 81.3 µM (inactive)
GI50 (PC-3): 30.5 µM (inactive)
GI50 (SN12C): 31 µM (inactive)
GI50 (KM12): 35.1 µM (inactive)
GI50 (SR): 31.3 µM (inactive)
GI50 (NCI-H460): 17.9 µM (inactive)
GI50 (ACHN): 21 µM (inactive)
GI50 (SF-295): 38 µM (inactive)
GI50 (K562): 21.5 µM (inactive)
GI50 (RPMI-8226): 19.2 µM (inactive)
GI50 (NCI-H226): 0.154 µM (active)
GI50 (T47D): 26.3 µM (inactive)
GI50 (NCI/ADR-RES): 31.1 µM (inactive)
GI50 (OVCAR-4): 35 µM (inactive)
GI50 (CAKI-1): 41.6 µM (inactive)
GI50 (U-251): 28.4 µM (inactive)
GI50 (SK-MEL-5): 2.55 µM (inactive)
GI50 (SK-MEL-2): > 100 µM (inactive)
GI50 (MCF7): 21.6 µM (inactive)
GI50 (MDA-MB-435): 39 µM (inactive)
GI50 (SNB-75): 28.1 µM (inactive)
GI50 (M14): 34.4 µM (inactive)
GI50 (HOP-92): 27.9 µM (inactive)
GI50 (LOX IMVI): 37.5 µM (inactive)
GI50 (MDA-N): 48.4 µM (inactive)
GI50 (DU-145): 53.8 µM (inactive)
GI50 (SNB-19): 42.3 µM (inactive)
